Data taken from patent US8318712B2, “Concentrated liquid thyroid hormone composition” (Intervet International B.V., priority 2006, dated 2012).

Assays:
[1] = as reported by Sigma-Aldrich; cited from earlier work
[2] = Stability of levothyroxine sodium in aqueous HPBCD solutions with phosphate and carbonate buffers, sealed container; assay type: physicochemical; conditions: experiments of Table 9
Excerpt: Applicants investigated the stability of levothyroxine sodium in aqueous HPBCD solutions with phosphate and carbonate buffers in a sealed container.

[3] = Solubility in water, effect of levothyroxine sodium particle size; assay type: physicochemical; conditions: observed after 24 hours
Protocol: The solubilities of batches of levothyroxine sodium micronized (D99<13 μm) and not micronized (D99<125 μm) were investigated. Preparations with several amounts of active ingredient in a fixed volume of water were observed after 24 hours. In both cases, less than 100 μg of levothyroxine sodium was soluble per ml of water.

[4] = Solubility in aqueous HPBCD solution, effect of complexing agent and copolymers; assay type: physicochemical
Protocol: In an aqueous solution of 30% (w/w) HPBCD (Kleptose HPB, Roquette, France), 1000 μg/ml of levothyroxine sodium was dissolved. Applicants have observed that similar levothyroxine sodium solubilities may be achieved at lesser concentrations of HPBCD by adding a copolymer(s), such as, for example, sodium carboxymethyl cellulose (“CMC”), hydroxypropylmethylcellulose 4000 (“HPMC”), and/or povidone 12PF.
0.5% w/w of CCM and 15% (w/w) of HPBCD,
0.5% w/w of HPMC and 20% (w/w) of HPBCD, or
2% w/w of Povidone 12PF and 20% (w/w) of HPBCD.

[5] = Stability of levothyroxine sodium in aqueous HPBCD solution with or without stabilizers; assay type: physicochemical; conditions: experiments of Tables 2-4
Excerpt: The stability of levothyroxine sodium in an aqueous solution of HPBCD with or without stabilization was investigated.

[6] = Solubility of levothyroxine sodium, effect of pH; assay type: physicochemical
Excerpt: To have an acceptable biological pH and to improve the solubility of levothyroxine, the pH preferably is at least about 8, or at least about 9.

CC(C)(N)CO [AMP, 2-amino-2-methyl-1-propanol]
effective pH range [1]: 8.7-10.4

O=S(=O)(O)CCCCNC1CCCCC1 [CABS, 4-[cyclohexylamino]-1-butanesulfonic acid]
effective pH range [1]: 10.0-11.4

O=S(=O)(O)CCCNC1CCCCC1 [CAPS, N-cyclohexyl-3-aminopropanesulfonic acid]
effective pH range [1]: 9.7-11.1

O=S(=O)(O)CC(O)CNC1CCCCC1 (stereo not shown) [CAPSO, 3-[cyclohexylamino]-2-hydroxy-1-propanesulphonic acid]
effective pH range [1]: 8.9-10.3

NCC(=O)O [Glycine]
effective pH range [1]: 8.8-10.6 | pKa2 [1]: 9.78

CN [Methylamine]
effective pH range [1]: 9.5-11.5

NCCO [ethanolamine]
effective pH range [1]: 6.0-12.0

N[C@@H](Cc1cc(I)c(Oc2cc(I)c(O)c(I)c2)c(I)c1)C(=O)[O-].[Na+] [levothyroxine sodium]
compatibility with HPBCD in aqueous solution [2]: did not exhibit incompatibility | levothyroxine sodium soluble per ml of water ([3]; micronized (D99<13 μm)): less than 100 μg per ml | levothyroxine sodium soluble per ml of water ([3]; not micronized (D99<125 μm)): less than 100 μg per ml | levothyroxine sodium dissolved ([4]; aqueous solution of 30% (w/w) HPBCD): 1000 µg/mL | levothyroxine sodium dissolved ([4]; aqueous solution, 0.5% w/w of CCM and 15% (w/w) of HPBCD): 1000 µg/mL | levothyroxine sodium dissolved ([4]; aqueous solution, 0.5% w/w of HPMC and 20% (w/w) of HPBCD): 1000 µg/mL | levothyroxine sodium dissolved ([4]; aqueous solution, 2% w/w of Povidone 12PF and 20% (w/w) of HPBCD): 1000 µg/mL | compatibility with HPBCD in aqueous solution [5]: did not exhibit incompatibility | solubility ([6]; pH 7.3): 28 µg/mL | solubility relative to pH 7.3 ([6]; pH 9.4): 7 times greater | solubility relative to pH 7.3 ([6]; pH 10.45): 11 times greater
